How the values were obtained:
[1] = system: mouse myoblast cell line (C2C12 cells); assay: Myotube thickness in dexamethasone-treated mouse myoblasts (Giemsa-Wright staining, ImageJ); format: cell-based; details: 100 μM, vs dexamethasone alone; for increase in thickness of myotubes reduced by dexamethasone: co-treated with 50 μM dexamethasone for two days from day 4 of differentiation, quantified using ImageJ
Method: A mouse myoblast cell line (C2C12 cells) was purchased from ATCC (Manassas, Va., USA), and the purchased cells were incubated in a 5% CO2 incubator at 37° C. using 10% fetal bovine serum media (Gibco-BRL). When the confluency of the incubated cells became 80%, the myoblasts were allowed to differentiate into myotubes using 2% horse serum media (Gibco-BRL). The mouse myoblasts incubated in Preparation Example 1 were co-treated with 50 dexamethasone (dexa; Sigma) and 100 μM of sesquiterpene derivatives (experimental materials) for two days from day 4 of differentiation of the mouse myoblasts. An experiment was conducted in the same manner as in Example 1, except for treatment with 50 μM of dexamethasone (dexa; Sigma) instead of the sesquiterpene derivatives (experimental materials). […] When the fixing was completed, the myotubes were naturally dried at room temperature for 10 minutes, and then a Giemsa-Wright staining solution (Asan Pharmaceutical, Seoul), which specifically stains myotubes, was dropped onto the myotubes and left for 30 minutes to stain the myotubes. […] Six sections were randomly selected from each well and micrographed, and the thickness of at least […] myotubes from each well was analyzed (three repetitions/group).

[2] = system: p-4E-BP1 protein; assay: Western blotting of p-4E-BP1 in dexamethasone-treated mouse myoblasts; format: cell-based; details: 100 μM, co-treated with dexamethasone; FIG. 3A
Method: (§10) The mouse myoblasts incubated in Preparation Example 1 were co-treated with 50 dexamethasone (dexa; Sigma) and 100 μM of sesquiterpene derivatives (experimental materials) for two days from day 4 of differentiation of the mouse myoblasts. An experiment was conducted in the same manner as in Example 1, except for treatment with 50 μM of dexamethasone (dexa; Sigma) instead of the sesquiterpene derivatives (experimental materials). To perform western blotting on cells, a lysis buffer containing 500 μL of 100 mM Tris-HCl, pH 7.4, 5 mM EDTA, 50 mM sodium pyrophosphate, 50 mM NaF, 100 mM orthovanadate, 1% Triton X-100, 1 mM phenylmethanesulfonyl fluoride, 2 μg/mL of aprotinin, 1 μg/mL of pepstatin A, and 1 μg/mL of leupeptin was added to each well from which media were removed, the cells were harvested, and then centrifuged at 1,300×g and 4° C. for 20 minutes, and then the middle layer was taken, and the concentrations of proteins were quantified by the Bradford method (Bio-Rad). 40 μg of the quantified proteins were electrophoresed by SDS-polyacrylamide gel, and then the separated proteins were transferred to nitrocellulose membranes (Amersham, Buckinghamshire, UK). […] Bands visualized on the X-ray film were scanned and quantified using Quantity One analysis software (Bio-Rad).

[3] = system: p-p70S6K1 protein; assay: Western blotting of p-p70S6K1 in dexamethasone-treated mouse myoblasts; format: cell-based; details: 100 μM, co-treated with dexamethasone; FIG. 3A
Method: as §10

[4] = system: MuRF1; assay: RT-PCR of MuRF1 gene expression in dexamethasone-treated mouse myoblasts; format: cell-based; details: 100 μM, co-treated with dexamethasone; FIG. 3B
Method: (§1) A mouse myoblast cell line (C2C12 cells) was purchased from ATCC (Manassas, Va., USA), and the purchased cells were incubated in a 5% CO2 incubator at 37° C. using 10% fetal bovine serum media (Gibco-BRL). When the confluency of the incubated cells became 80%, the myoblasts were allowed to differentiate into myotubes using 2% horse serum media (Gibco-BRL).
(§2) The mouse myoblasts incubated in Preparation Example 1 were co-treated with 50 dexamethasone (dexa; Sigma) and 100 μM of sesquiterpene derivatives (experimental materials) for two days from day 4 of differentiation of the mouse myoblasts.
(§3) An experiment was conducted in the same manner as in Example 1, except for treatment with 50 μM of dexamethasone (dexa; Sigma) instead of the sesquiterpene derivatives (experimental materials).
(§4) 334 μl of a TRIzol solution per 1×10^7 mouse myoblasts of Example 1 was added and replaced, followed by centrifugation at 12,000×g and 4° C. for 10 minutes. The supernatant was transferred to a new tube and then 67 μl of chloroform was added thereto, followed by vortexing. […] The concentration of the extracted RNA samples was measured at wavelengths of 260 nm and 280 nm using a UV/VIS spectrometer (Beckman Coulter, DU730), and was subjected to agarose gel electrophoresis to confirm the integrity of RNA samples. […]

[5] = system: MaFbx/atrogin1; assay: RT-PCR of MaFbx/atrogin1 gene expression in dexamethasone-treated mouse myoblasts; format: cell-based; details: 100 μM, co-treated with dexamethasone; FIG. 3B
Method: as §1, §2, §3, §4

[6] = system: C57BL/6N mice; assay: Grip strength test; format: in vivo, mouse; details: 200 mpk orally once a day, week 12 of breeding
Excerpt: (§5) 32 5-week-old male C57BL/6N mice (Orient, Korea) were adapted to a laboratory environment for one week with a commercial normal diet (rodent chow), and then randomly divided into four groups (chow vehicle group, chow α-cedrene group, HFD vehicle group, and HFD α-cedrene group) according to a randomized block design and bred for a total of 10 weeks.
(§6) While mice bred in Preparation Example 2 were fed a normal diet for 10 weeks, 200 mpk α-cedrene was orally administered to the mice once a day.
A procedure was carried out in the same manner as in Example 2, except that the mice were fed a high-fat experimental diet (HFD: 40% high fat energy, 17 g lard+3% corn oil/100 g diet). […]
The grip strength of the mice of Examples 2 and 3 and Comparative Examples 2 and 3 was measured at week 12 of breeding using a grip strength meter for mice (DJ2-248, Daejong Instrument Industry Co., Ltd., Korea). In particular, a force (N) for mice to hold onto a wire mesh was measured while mounting the four feet of mice on a wire mesh to which a gauge was attached, and pulling the tails of the mice backward. The measurement was successively performed five times, and the maximum value was determined as grip strength. To normalize the experimental results, grip strength (N) divided by body weight […] was calculated.

[7] = system: C57BL/6N mice; assay: Four limb hanging test; format: in vivo, mouse; details: 200 mpk orally once a day; for hanging time: FIG. 5A; for hanging time multiplied by body weight: FIG. 5B
Excerpt: as §5, §6
(§7) A procedure was carried out in the same manner as in Example 2, except that the mice were fed a high-fat experimental diet (HFD: 40% high fat energy, 17 g lard+3% corn oil/100 g diet).
(§8) A procedure was carried out in the same manner as in Example 2, except that a vehicle was orally administered instead of 200 mpk α-cedrene, while a commercial normal diet (rodent chow) was ingested.
(§9) A procedure was carried out in the same manner as in Comparative Example 2, except that a high-fat diet (HFD: 40% high fat energy) was ingested.
To measure the limb muscle strength of mice, the time that the mice of Examples 2 and 3 and Comparative Examples 2 and 3 hung upside down using their four feet was measured at week 12 of breeding. The time (seconds) that the mice hung upside down in a cage equipped with a wire mesh cover (diameter <0.5 cm) (20×30×50 cm, Jeung-Do Bio & Plant Co., Ltd, Korea) was measured a total of three times, and a rest period of 30 minutes or longer was given between measurements. Experimental results were obtained by multiplying hanging time (sec) by body weight (kg).

[8] = system: mouse gastrocnemius; assay: H&E staining of muscle tissue, fiber diameter; format: in vivo; details: 200 mpk orally once a day, vs vehicle
Excerpt: as §5, §6, §7, §8, §9
Muscle tissues of mice were extracted, fixed in 10% formalin, and then stained with hematoxylin and eosin (H&E) after requesting Korea CFC (Gyeonggi-do, Korea) to do so, and observed using an optical microscope (IX71, Olympus, JPN) and photographed using a digital camera (DP71, Olympus, JPN).

[9] = high-fat diet, vs HFD vehicle group
[10] = normal diet, vs chow vehicle group

C[C@@H]1CC[C@H]2C(C)(C)[C@H]3C[C@@]12CC1OC13C (some centres unmarked) [cedrene epoxide]
increase in thickness of myotubes reduced by dexamethasone [1]: 38%

CC1=CC[C@@]23C[C@@H]1C(C)(C)C2CC[C@H]3C (stereo partly drawn) [cedrene, α-cedrene]
increase in thickness of myotubes reduced by dexamethasone [1]: 58%
thickness of myotubes reduced by dexamethasone (visually confirmed, FIG. 1A) ([1]; co-treated with dexamethasone): increased
amount of p-4E-BP1 protein reduced by dexamethasone [2]: significantly increased
amount of p-p70S6K protein reduced by dexamethasone [3]: significantly increased
expression of MuRF1 [4]: significantly reduced
expression of MaFbx/atrogin1 [5]: significantly reduced
increase in grip strength [6, 9]: 31%
increase in grip strength [6, 10]: 26%
hanging time [7, 9]: significantly increased
hanging time multiplied by body weight [7, 9]: significantly increased
hanging time [7, 10]: significantly increased
hanging time multiplied by body weight [7, 10]: significantly increased
increase in fiber diameter of the mouse gastrocnemius ([8]; CHOW group): 21%
increase in fiber diameter of the mouse gastrocnemius ([8]; HFD group): 27%

CC1=CCC23CC1C(C)(CO)C2CCC3C (centres unmarked) [cedrenol]
increase in thickness of myotubes reduced by dexamethasone [1]: 43%

C[C@@H]1CC[C@H]2C(C)(C)[C@H]3C[C@@]12CC[C@@]3(C)O [cedrol]
increase in thickness of myotubes reduced by dexamethasone [1]: 40%

CC(=O)O[C@]1(C)CC[C@@]23C[C@@H]1C(C)(C)[C@@H]2CC[C@H]3C [cedryl acetate]
increase in thickness of myotubes reduced by dexamethasone [1]: 51%

CC(=O)C1=C(C)[C@@H]2C[C@@]3(C1)[C@H](C)CC[C@H]3C2(C)C [methyl cedryl ketone]
increase in thickness of myotubes reduced by dexamethasone [1]: 32%

C=C1CC[C@@]23C[C@@H]1C(C)(C)C2CC[C@H]3C (stereo partly drawn) [β-cedrene]
increase in thickness of myotubes reduced by dexamethasone [1]: 36%
